PubChem BioAssay (NCI)
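These data come from cells grown in 96-well plates and exposed to compound for 48 hours at five concentrations. TGI is the concentration that stops growth completely.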

Legend:
Experiment in all cases: NCI tumour cell line growth inhibition, 48 h
[1] = tested on: 786-0 renal
[2] = tested on: A498 renal
[3] = tested on: A549 NSCLC
[4] = tested on: ACHN renal
[5] = tested on: BT-549 breast
[6] = tested on: CAKI-1 renal
[7] = tested on: CCRF-CEM leukemia
[8] = tested on: COLO 205 colon
[9] = tested on: DU-145 prostate
[10] = tested on: EKVX NSCLC
[11] = tested on: HCC-2998 colon
[12] = tested on: HCT-116 colon
[13] = tested on: HCT-15 colon
[14] = tested on: HL-60(TB) leukemia
[15] = tested on: HOP-62 NSCLC
[16] = tested on: HOP-92 NSCLC
[17] = tested on: HS 578T breast
[18] = tested on: HT29 colon
[19] = tested on: IGROV1 ovarian
[20] = tested on: K-562 leukemia
[21] = tested on: KM12 colon
[22] = tested on: LOX IMVI melanoma
[23] = tested on: M14 melanoma
[24] = tested on: MALME-3M melanoma
[25] = tested on: MCF7 breast
[26] = tested on: MDA-MB-231 breast
[27] = tested on: MDA-MB-435
[28] = tested on: MDA-N
[29] = tested on: MOLT-4 leukemia
[30] = tested on: NCI-H226 lung
[31] = tested on: NCI-H23 lung
[32] = tested on: NCI-H460 lung
[33] = tested on: NCI-H522 lung
[34] = tested on: NCI/ADR-RES ovarian
[35] = tested on: OVCAR-3 ovarian
[36] = tested on: OVCAR-4 ovarian
[37] = tested on: OVCAR-5 ovarian
[38] = tested on: OVCAR-8 ovarian
[39] = tested on: PC-3 prostate
[40] = tested on: RPMI-8226 leukemia
[41] = tested on: RXF 393 renal
[42] = tested on: SF-268 CNS
[43] = tested on: SF-295 CNS
[44] = tested on: SF-539 CNS
[45] = tested on: SK-MEL-2 melanoma
[46] = tested on: SK-MEL-28 melanoma
[47] = tested on: SK-OV-3 ovarian
[48] = tested on: SN12C renal
[49] = tested on: SNB-19 CNS
[50] = tested on: SNB-75 CNS
[51] = tested on: SW-620 colon
[52] = tested on: T-47D breast
[53] = tested on: TK-10 renal
[54] = tested on: U251 CNS
[55] = tested on: UACC-257 melanoma
[56] = tested on: UACC-62 melanoma
[57] = tested on: SK-MEL-5 melanoma
[58] = tested on: SR leukemia
[59] = tested on: UO-31 renal

O=C(N/N=C(/COc1cccc(Cl)c1)N=Cc1cccnc1)c1ccncc1
TGI [1]: > 100 µM | TGI [2]: > 100 µM | TGI [3]: > 100 µM | TGI [4]: > 100 µM | TGI [5]: > 100 µM | TGI [6]: > 100 µM | TGI [7]: > 100 µM | TGI [8]: > 100 µM | TGI [9]: > 100 µM | TGI [10]: > 100 µM | TGI [11]: > 100 µM | TGI [12]: > 100 µM | TGI [13]: > 100 µM | TGI [14]: > 100 µM | TGI [15]: > 100 µM | TGI [16]: 89.7 µM | TGI [17]: > 100 µM | TGI [18]: > 100 µM | TGI [19]: > 100 µM | TGI [20]: > 100 µM | TGI [21]: > 100 µM | TGI [22]: > 100 µM | TGI [23]: > 100 µM | TGI [24]: > 100 µM | TGI [25]: > 100 µM | TGI [26]: > 100 µM | TGI [27]: > 100 µM | TGI [28]: > 100 µM | TGI [29]: > 100 µM | TGI [30]: > 100 µM | TGI [31]: > 100 µM | TGI [32]: > 100 µM | TGI [33]: > 100 µM | TGI [34]: > 100 µM | TGI [35]: > 100 µM | TGI [36]: > 100 µM | TGI [37]: > 100 µM | TGI [38]: > 100 µM | TGI [39]: > 100 µM | TGI [40]: > 100 µM | TGI [41]: > 100 µM | TGI [42]: > 100 µM | TGI [43]: > 100 µM | TGI [44]: > 100 µM | TGI [45]: > 100 µM | TGI [46]: > 100 µM | TGI [47]: > 100 µM | TGI [48]: > 100 µM | TGI [49]: > 100 µM | TGI [50]: > 100 µM | TGI [51]: > 100 µM | TGI [52]: > 100 µM | TGI [53]: > 100 µM | TGI [54]: > 100 µM | TGI [55]: > 100 µM | TGI [56]: > 100 µM

NC(=S)NS(=O)(=O)c1ccc(F)cc1F
TGI [1]: > 100 µM | TGI [2]: > 100 µM | TGI [3]: > 100 µM | TGI [4]: > 100 µM | TGI [5]: > 100 µM | TGI [6]: > 100 µM | TGI [7]: > 100 µM | TGI [8]: > 100 µM | TGI [9]: > 100 µM | TGI [10]: > 100 µM | TGI [11]: > 100 µM | TGI [12]: > 100 µM | TGI [13]: > 100 µM | TGI [14]: > 100 µM | TGI [15]: > 100 µM | TGI [16]: > 100 µM | TGI [17]: > 100 µM | TGI [18]: > 100 µM | TGI [19]: > 100 µM | TGI [20]: > 100 µM | TGI [21]: > 100 µM | TGI [22]: > 100 µM | TGI [23]: > 100 µM | TGI [24]: > 100 µM | TGI [25]: > 100 µM | TGI [26]: > 100 µM | TGI [27]: > 100 µM | TGI [28]: > 100 µM | TGI [29]: > 100 µM | TGI [30]: > 100 µM | TGI [31]: > 100 µM | TGI [32]: > 100 µM | TGI [33]: > 100 µM | TGI [34]: > 100 µM | TGI [35]: > 100 µM | TGI [36]: > 100 µM | TGI [37]: > 100 µM | TGI [38]: > 100 µM | TGI [39]: > 100 µM | TGI [40]: > 100 µM | TGI [41]: > 100 µM | TGI [42]: > 100 µM | TGI [43]: > 100 µM | TGI [44]: > 100 µM | TGI [45]: > 100 µM | TGI [46]: > 100 µM | TGI [57]: > 100 µM | TGI [47]: > 100 µM | TGI [48]: > 100 µM | TGI [49]: > 100 µM | TGI [50]: > 100 µM | TGI [51]: > 100 µM | TGI [52]: > 100 µM | TGI [53]: > 100 µM | TGI [54]: > 100 µM | TGI [55]: > 100 µM | TGI [56]: > 100 µM

O=C(NNC(=S)NCc1ccccc1)C12CC3CC(CC(C3)C1)C2
TGI [1]: > 100 µM | TGI [2]: > 100 µM | TGI [4]: > 100 µM | TGI [5]: > 100 µM | TGI [7]: > 100 µM | TGI [8]: 44.1 µM | TGI [9]: > 100 µM | TGI [11]: > 100 µM | TGI [12]: > 100 µM | TGI [13]: > 100 µM | TGI [14]: 51.7 µM | TGI [15]: > 100 µM | TGI [17]: > 100 µM | TGI [18]: > 100 µM | TGI [19]: > 100 µM | TGI [20]: > 100 µM | TGI [21]: > 100 µM | TGI [22]: > 100 µM | TGI [23]: > 100 µM | TGI [24]: > 100 µM | TGI [25]: > 100 µM | TGI [26]: > 100 µM | TGI [27]: > 100 µM | TGI [28]: > 100 µM | TGI [29]: > 100 µM | TGI [30]: > 100 µM | TGI [31]: > 100 µM | TGI [32]: > 100 µM | TGI [33]: > 100 µM | TGI [34]: > 100 µM | TGI [35]: > 100 µM | TGI [36]: > 100 µM | TGI [37]: > 100 µM | TGI [38]: > 100 µM | TGI [39]: > 100 µM | TGI [40]: > 100 µM | TGI [41]: > 100 µM | TGI [42]: > 100 µM | TGI [43]: > 100 µM | TGI [44]: > 100 µM | TGI [45]: > 100 µM | TGI [46]: > 100 µM | TGI [47]: > 100 µM | TGI [48]: > 100 µM | TGI [49]: > 100 µM | TGI [50]: > 100 µM | TGI [58]: > 100 µM | TGI [51]: > 100 µM | TGI [52]: > 100 µM | TGI [53]: > 100 µM | TGI [54]: > 100 µM | TGI [55]: > 100 µM | TGI [56]: > 100 µM | TGI [59]: > 100 µM

Cc1ccc(C)n1-n1c(-c2ccccc2)n[nH]c1=O
TGI [1]: > 100 µM | TGI [2]: > 100 µM | TGI [3]: > 100 µM | TGI [4]: > 100 µM | TGI [5]: > 100 µM | TGI [6]: > 100 µM | TGI [7]: > 100 µM | TGI [8]: > 100 µM | TGI [9]: > 100 µM | TGI [10]: > 100 µM | TGI [11]: > 100 µM | TGI [12]: > 100 µM | TGI [13]: > 100 µM | TGI [15]: > 100 µM | TGI [17]: > 100 µM | TGI [18]: > 100 µM | TGI [19]: > 100 µM | TGI [20]: > 100 µM | TGI [21]: > 100 µM | TGI [22]: > 100 µM | TGI [23]: > 100 µM | TGI [24]: > 100 µM | TGI [25]: > 100 µM | TGI [26]: > 100 µM | TGI [27]: 53.6 µM | TGI [28]: 70.8 µM | TGI [29]: > 100 µM | TGI [30]: > 100 µM | TGI [32]: > 100 µM | TGI [33]: > 100 µM | TGI [34]: > 100 µM | TGI [35]: > 100 µM | TGI [36]: > 100 µM | TGI [37]: > 100 µM | TGI [38]: > 100 µM | TGI [39]: > 100 µM | TGI [40]: > 100 µM | TGI [41]: > 100 µM | TGI [42]: > 100 µM | TGI [43]: > 100 µM | TGI [45]: > 100 µM | TGI [46]: > 100 µM | TGI [57]: > 100 µM | TGI [47]: > 100 µM | TGI [48]: > 100 µM | TGI [49]: > 100 µM | TGI [50]: > 100 µM | TGI [58]: > 100 µM | TGI [51]: > 100 µM | TGI [52]: > 100 µM | TGI [53]: > 100 µM | TGI [54]: > 100 µM | TGI [55]: > 100 µM | TGI [56]: > 100 µM | TGI [59]: > 100 µM
